Experiment [1] concerns the target T1, Full length DGKα (D21-10BG, SignalChem) (Homo sapiens, UniProt P23743).
T1 construct: Full length DGKα (D21-10BG, SignalChem); purchased SignalChem D21-10BG
In words: Biochemical DGK IC50 assay (ADP-Glo, lipid micelle substrate), DGKα. The following applies: 1 hour preincubation, 1 hour reaction, room temperature. As to the method:
(§1) Enzymatic reactions of DGKζ, DGKα and DGKδ were performed using ADP-Glo assay with lipid micelle substrate. […] Full length DGKα (D21-10BG, SignalChem) and full length DGKδ (D23-10G, SignalChem) were purchased. Lipid micelle was prepared by dissolving DAG (Sigma, 317505-10 MG) and PS (Sigma, P7769-100 MG) with chloroform which was furtherly removed by rotary evaporation. The obtained residue was resuspended in buffer containing 25 mM HEPES pH 7.0, 0.5 mM EDTA and 160 mM Octyl β-D glucopyranoside by vigorous mixing and ultrasonic (IID, Scientz).
(§2) The inhibition activities testing for the compound disclosed herein were carried out at room temperature in assay buffer containing 50 mM HEPES, 10 mM MgCl2, 0.01% BSA, 0.1 mM Na3VO4, 0.005% Tween-20 and 0.01 mM CaCl2). Compounds in DMSO were dispensed into wells of a black 384 well plate (Corning 4514) using D300e digital dispenser (Tecan). […] 3 μL 2× enzyme solution was added to wells. […] After 1 hour reaction, 5 μL ADP-Glo reagent (Promga V9101) was added and incubated for 40 minutes. 10 μL Kinase Detection reagent was added and incubated for 30 minutes. Luminescence was measured on a microplate reader (PHERAstar FSX, BMG labtech). The IC50S are calculated based on inhibition of enzyme activity in the presence of increasing concentrations of compounds.
Background: In ADP-Glo the light output rises with the ADP produced.

The target of experiment [2] is T2, Full length DGKζ (in-house protein M1-V929) (Homo sapiens, UniProt Q13574).
T2 construct: His (N); TEV site (N); made in house; host or cells: Sf9 insect cells (Bac-to-Bac baculovirus)
The experiment in a line: Biochemical DGK IC50 assay (ADP-Glo, lipid micelle substrate), DGKζ. The following applies: 1 hour preincubation, 1 hour reaction, room temperature. On the procedure: as §1, §2
Human His-TEV-DGK-zeta-pFastBac1 and human baculovirus samples was generated using the Bac- to -Bac baculovirus expression system (Invitrogen) according to the manufacturer's protocol. The DNA used for expression of DGK-zeta, have SEQ ID Nos: 1. Baculovirus amplification was achieved using infected SF9 cells at 1:2000 virus/cells ratios, and grown for 96 hours at 27° C. post-transfected.
The expression scaled up for each protein was carried out in the […] from CORNING. 4 L of 3×10^6 cells/mL Sf9 cells (Expression System, Invitrogen) grown in SF900™ II SFM insect medium (Expression System) was infected with virus stock at 1:200 virus/cells ratio, and grown for 48 hours at 27° C. post-transfection. The infected cell culture was harvested by centrifugation at 6000 rpm for 15 min 4° C. in a SORVALL LYNX6000 centrifuge. The cell pellets were stored at −80° C.
Full length human DGKζ produced as described above, was purified from Sf9 baculovirus-infected insect cell paste. The cells were lysed using sonication method, and the lysates were clarified by centrifugation.

Results on 24 compounds are retold here after patent publication US20260125378A2, “Heterocyclic Compounds” (BeOne Medicines I GmbH, priority 2023, published 2026).

T1 sequence (P23743 whole entry): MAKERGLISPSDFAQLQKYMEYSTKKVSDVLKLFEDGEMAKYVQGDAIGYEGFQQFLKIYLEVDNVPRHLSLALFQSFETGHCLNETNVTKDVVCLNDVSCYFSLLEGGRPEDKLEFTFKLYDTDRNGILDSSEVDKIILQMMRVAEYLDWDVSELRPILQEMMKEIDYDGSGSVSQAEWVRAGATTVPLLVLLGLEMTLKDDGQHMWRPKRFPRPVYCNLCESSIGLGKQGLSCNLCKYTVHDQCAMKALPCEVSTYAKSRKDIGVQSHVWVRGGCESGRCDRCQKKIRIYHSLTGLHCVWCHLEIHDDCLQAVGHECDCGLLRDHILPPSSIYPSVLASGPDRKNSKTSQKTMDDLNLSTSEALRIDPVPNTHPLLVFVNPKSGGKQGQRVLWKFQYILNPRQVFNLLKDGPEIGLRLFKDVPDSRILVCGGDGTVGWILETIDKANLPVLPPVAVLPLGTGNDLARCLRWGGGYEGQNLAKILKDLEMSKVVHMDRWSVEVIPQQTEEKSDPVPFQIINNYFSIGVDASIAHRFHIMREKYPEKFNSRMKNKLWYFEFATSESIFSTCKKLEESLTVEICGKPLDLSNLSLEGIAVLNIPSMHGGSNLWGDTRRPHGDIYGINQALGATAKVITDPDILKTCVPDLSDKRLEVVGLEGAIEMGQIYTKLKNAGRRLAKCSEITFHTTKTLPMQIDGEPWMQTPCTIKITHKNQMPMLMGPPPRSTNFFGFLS
T2 sequence (Q13574 1-929 isoform Q13574-4): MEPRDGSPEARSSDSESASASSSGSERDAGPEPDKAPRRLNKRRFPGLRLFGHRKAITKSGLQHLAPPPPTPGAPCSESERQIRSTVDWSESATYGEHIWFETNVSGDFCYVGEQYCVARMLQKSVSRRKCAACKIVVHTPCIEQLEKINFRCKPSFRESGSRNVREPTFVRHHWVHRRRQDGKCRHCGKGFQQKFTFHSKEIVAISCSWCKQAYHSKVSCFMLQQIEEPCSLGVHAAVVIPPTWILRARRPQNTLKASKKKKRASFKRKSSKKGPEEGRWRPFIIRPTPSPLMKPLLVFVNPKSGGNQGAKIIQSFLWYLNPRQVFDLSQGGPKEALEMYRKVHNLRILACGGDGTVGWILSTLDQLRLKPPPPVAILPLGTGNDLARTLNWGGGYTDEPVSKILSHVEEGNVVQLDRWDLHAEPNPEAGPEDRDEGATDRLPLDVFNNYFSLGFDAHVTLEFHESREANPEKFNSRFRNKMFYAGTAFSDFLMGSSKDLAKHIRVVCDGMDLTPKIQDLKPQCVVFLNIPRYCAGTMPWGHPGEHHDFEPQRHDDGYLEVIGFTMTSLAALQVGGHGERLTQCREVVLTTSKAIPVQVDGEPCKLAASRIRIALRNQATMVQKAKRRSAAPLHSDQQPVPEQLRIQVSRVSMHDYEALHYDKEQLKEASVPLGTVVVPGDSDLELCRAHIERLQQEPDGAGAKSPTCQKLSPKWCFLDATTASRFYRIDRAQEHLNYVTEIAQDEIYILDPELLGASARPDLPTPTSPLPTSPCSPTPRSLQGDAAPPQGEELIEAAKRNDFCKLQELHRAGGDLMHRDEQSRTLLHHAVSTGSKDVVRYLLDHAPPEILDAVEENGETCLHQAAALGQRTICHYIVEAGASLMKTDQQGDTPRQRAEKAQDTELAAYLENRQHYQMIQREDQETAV

For `CCn1c(CC#N)nc2c(N3C[C@@H](C)N(C(C)c4ccc5c(=O)cc(C)oc5c4)C[C@@H]3C)nc(=O)n(C)c21` (stereo partly drawn) [Compound A191, 2-(6-((2S,5R)-2,5-dimethyl-4-(1-(2-methyl-4-oxo-4H-chromen-7-yl)ethyl)piperazin-1-yl)-9-ethyl-3-methyl-2-oxo-3,9-dihydro-2H-purin-8-yl)acetonitrile], the IC50 is 40900 nM in experiment [1] and 78 nM in experiment [2].
For the compound `CCn1c(CC#N)nc2c(N3C[C@@H](C)N(C(C)c4ccc5c(c4)OC(C)(C)O5)C[C@@H]3C)c(F)c(=O)n(C)c21` (stereo partly drawn) [Compound A188, 2-(7-((2S,5R)-4-(1-(2,2-dimethylbenzo[d][1,3]dioxol-5-yl)ethyl)-2,5-dimethylpiperazin-1-yl)-3-ethyl-6-fluoro-4-methyl-5-oxo-4,5-dihydro-3H-imidazo[4,5-b]pyridin-2-yl)acetonitrile], the IC50 in experiment [1] was over 150000 nM; in experiment [2] it was 74 nM.
As for `CC[C@H]1CN(C(C)c2ccc3c(c2)OC(C)(C)CO3)[C@H](CC)CN1c1nc(=O)n(C)c2c1nc(CC#N)n2CC` (stereo partly drawn) [Compound A67, 2-(6-((2S,5R)-4-(1-(3,3-dimethyl-2,3-dihydrobenzo[b][1,4]dioxin-6-yl)ethyl)-2,5-diethylpiperazin-1-yl)-9-ethyl-3-methyl-2-oxo-3,9-dihydro-2H-purin-8-yl)acetonitrile], the IC50 amounted to 118000 nM in experiment [1] and 10 nM in experiment [2].
The matching figures for `CCn1c(CC#N)nc2c(N3C[C@@H](C)N(C(C)c4ccc5c(n4)C(C)(C)CO5)C[C@@H]3C)nc(=O)n(C)c21` (stereo partly drawn) [Compound A181, 2-(6-((2S,5R)-4-(1-(3,3-dimethyl-2,3-dihydrofuro[3,2-b]pyridin-5-yl)ethyl)-2,5-dimethylpiperazin-1-yl)-9-ethyl-3-methyl-2-oxo-3,9-dihydro-2H-purin-8-yl)acetonitrile]: over 150000 nM and 17 nM.
On to `CCn1c(=O)nc(N2C[C@@H](C)N(C(C)c3ccc4ncc(C)nc4c3)C[C@@H]2C)c2nc(CC#N)n(C)c21` (single isomer, unassigned) [Compound A53b], for which the half-maximal inhibitory concentration (IC50) in experiment [1] is over 150000 nM; in experiment [2], 662 nM.
In the case of `CC(c1ccc2nccnc2c1)N1C[C@H](C)N(c2cc(=O)n(C)c3sc(CC#N)nc23)C[C@H]1C` (mixture of isomers) [Compound A194, 2-(7-((2S,5R)-2,5-dimethyl-4-(1-(quinoxalin-6-yl)ethyl)piperazin-1-yl)-4-methyl-5-oxo-4,5-dihydrothiazolo[5,4-b]pyridin-2-yl)acetonitrile], the IC50 was found to be 4080 nM in experiment [1] and 7 nM in experiment [2].
Take `CCn1c(CC#N)nc2c(N3C[C@@H](C)N(C(C)c4cc(Cl)c5c(c4)OC(C)(C)O5)C[C@@H]3C)nc(=O)n(C)c21` (stereo partly drawn) [Compound A171, 2-(6-((2S,5R)-4-(1-(7-chloro-2,2-dimethylbenzo[d][1,3]dioxol-5-yl)ethyl)-2,5-dimethylpiperazin-1-yl)-9-ethyl-3-methyl-2-oxo-3,9-dihydro-2H-purin-8-yl)acetonitrile]: the IC50 in experiment [1] was determined as 65800 nM; in experiment [2], 107 nM.
The matching figures for `Cc1ccc(C(C)N2C[C@H](C)N(c3cc(=O)n(C)c4c3nc(CC#N)n4C)C[C@H]2C)c(C(F)(F)F)c1` (single isomer, unassigned) [Compound A8b]: over 150000 nM and 97 nM.
On to `CCn1c(CC#N)nc2c(N3C[C@@H](C)N(C(C)c4cccc(C(C)C)c4)C[C@@H]3C)nc(=O)n(C)c21` (single isomer, unassigned) [Compound A108b], for which the IC50 in experiment [1] worked out at 95800 nM; in experiment [2], 822 nM.
For `CCn1c(CC#N)nc2c(N3C[C@@H](C)N(C(C)c4cccc(C)c4)C[C@@H]3C)nc(=O)n(C)c21` (stereo partly drawn) [Compound A45, 2-(6-((2S,5R)-2,5-dimethyl-4-(1-(m-tolyl)ethyl)piperazin-1-yl)-9-ethyl-3-methyl-2-oxo-3,9-dihydro-2H-purin-8-yl)acetonitrile], the IC50 in experiment [1] came out at 79300 nM; in experiment [2], 410 nM.
As for `CC(c1ccc2c(c1)OCCO2)N1C[C@H](C)N(c2nc(=O)n(C)c3c2nc(CC#N)n3C)C[C@H]1C` (single isomer, unassigned) [Compound A58a], the figures for the IC50 in experiment [1] and in experiment [2] were 13300 nM and 20 nM, respectively.
For `CCn1c(CC#N)nc2c(N3C[C@@H](C)N(C(C)c4ccc5c(c4)OC(C)(C)C5=O)C[C@@H]3C)nc(=O)n(C)c21` (stereo partly drawn) [Compound A179, 2-(6-((2S,5R)-4-(1-(2,2-dimethyl-3-oxo-2,3-dihydrobenzofuran-6-yl)ethyl)-2,5-dimethylpiperazin-1-yl)-9-ethyl-3-methyl-2-oxo-3,9-dihydro-2H-purin-8-yl)acetonitrile], the results for the concentration for half-maximal inhibition (IC50) in experiment [1] and in experiment [2] were 69000 nM and 6 nM, respectively.
As to `CC(c1ccc2c(c1)OC(C)(C)CO2)N1C[C@H](C)N(c2nc(=O)n(C)c3c2nc(CC#N)n3C)C[C@H]1C` (single isomer, unassigned) [Compound A59a], the IC50 in experiment [1] is 40300 nM; in experiment [2], 238 nM.
Consider `CC(c1ccc2c(c1)OCCO2)N1C[C@H](C)N(c2nc(=O)n(C)c3c2nc(CC#N)n3C)C[C@H]1C` (stereo partly drawn) [Compound A58, 2-(6-((2S,5R)-4-(1-(2,3-dihydrobenzo[b][1,4]dioxin-6-yl)ethyl)-2,5-dimethylpiperazin-1-yl)-3,9-dimethyl-2-oxo-3,9-dihydro-2H-purin-8-yl)acetonitrile], for which the results for the IC50 in experiment [1] and in experiment [2] were over 10000 nM and 40 nM, respectively.
In the case of `Cc1cnc2ccc(C(C)N3C[C@H](C)N(c4c(F)c(=O)n(C)c5c4nc(CC#N)n5C)C[C@H]3C)cc2n1` (single isomer, unassigned) [Compound A23a], the values for the IC50 in experiment [1] and in experiment [2] were 63200 nM and 8 nM, respectively.
The matching figures for `Cc1ccc(C(C)N2C[C@H](C)N(c3c(F)c(=O)n(C)c4c3nc(CC#N)n4C)C[C@H]2C)c(C(F)(F)F)c1` (single isomer, unassigned) [Compound A15a]: over 10000 nM and 1410 nM.
In the case of `CC[C@H]1CN(C(C)c2ccc3ncc(C)nc3c2)[C@H](CC)CN1c1nc(=O)n(C)c2c1nc(CC#N)n2C` (single isomer, unassigned) [Compound A51a], the figures for the IC50 in experiment [1] and in experiment [2] were 14000 nM and 3 nM, respectively.
The matching figures for `CC[C@@H]1CN(c2nc(=O)n(C)c3c2nc(CC#N)n3CC)[C@@H](C)CN1C(C)c1ccc2c(c1)OC(C)(C)CO2` (stereo partly drawn) [Compound A65, 2-(6-((2S,5R)-4-(1-(3,3-dimethyl-2,3-dihydrobenzo[b][1,4]dioxin-6-yl)ethyl)-5-ethyl-2-methylpiperazin-1-yl)-9-ethyl-3-methyl-2-oxo-3,9-dihydro-2H-purin-8-yl)acetonitrile]: 24200 nM and 2.3 nM.
The matching figures for `CC[C@@H]1CN(c2nc(=O)n(C)c3c2nc(CC#N)n3C)[C@@H](C)CN1C(C)c1ccc2c(n1)OC(C)(C)CO2` (single isomer, unassigned) [Compound A159b]: 63400 nM and 691 nM.
The matching figures for `CCn1c(=O)nc(N2C[C@@H](C)N(C(C)c3ccc4c(c3)OC(C)(C)CO4)C[C@@H]2C)c2nc(CC#N)n(C)c21` (single isomer, unassigned) [Compound A61a]: 10100 nM and 2 nM.
For the compound `CC(c1ccc2nccnc2c1)N1C[C@H](C)N(c2nc(=O)n(C)c3c2nc(CC#N)n3C)C[C@H]1C` (stereo partly drawn) [Compound A48, 2-(6-((2S,5R)-2,5-dimethyl-4-(1-(quinoxalin-6-yl)ethyl)piperazin-1-yl)-3,9-dimethyl-2-oxo-3,9-dihydro-2H-purin-8-yl)acetonitrile], the IC50 in experiment [1] stood at 44600 nM; in experiment [2], 29 nM.
For the compound `CC[C@H]1CN(C(C)c2ccc(C(F)(F)F)cc2)[C@H](CC)CN1c1nc(=O)n(C)c2c1nc(CC#N)n2C` (single isomer, unassigned) [Compound A149a], the IC50 in experiment [1] is 1620 nM; in experiment [2], 37 nM.
Taken in the same sequence, the figures for `COc1cc(F)ccc1C(C)N1C[C@H](C)N(c2nc(=O)n(C)c3c2nc(CC#N)n3C)C[C@H]1C` (single isomer, unassigned) [Compound A24a] were over 10000 nM and 975 nM.
The matching figures for `CCn1c(CC#N)nc2c(N3C[C@@H](C)N(C(C)c4cc5c(cc4F)OC(C)(C)O5)C[C@@H]3C)nc(=O)n(C)c21` (single isomer, unassigned) [Compound A174a]: 51200 nM and 1030 nM.

The term IC50 denotes the concentration needed to halve the response being measured. Higher therefore signals a need for much substance.
